Key:
Format in all cases: in vivo
[1] = test system: Annual bluegrass; test: Pre-emergence herbicide test; conditions: 1.12 kg/ha, read-out: % plant inhibition (Anbg)
Summary of the method: (§1)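 Values are percent inhibition assessed about 10-14 days (usually 11) after a known amount of test compound, carried in acetone or water, was applied to seeds on compacted topsoil and covered with untreated soil, with greenhouse sub-irrigation.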

[2] = test system: Barnyardgrass; test: Pre-emergence herbicide test; conditions: Echinochloa crus-galli, 1.12 kg/ha, read-out: % plant inhibition (Bygr)
Summary of the method: as §1

[3] = test system: Cocklebur; test: Pre-emergence herbicide test; conditions: Xanthium strumarium, 1.12 kg/ha, read-out: % plant inhibition (Cobu)
Summary of the method: as §1

[4] = test system: Downy Brome; test: Pre-emergence herbicide test; conditions: Bromus tectorum, 1.12 kg/ha, read-out: % plant inhibition (Dobr)
Summary of the method: as §1

[5] = test system: Indian Mustard; test: Pre-emergence herbicide test; conditions: Brassica juncea, 1.12 kg/ha, read-out: % plant inhibition (Inmu)
Summary of the method: as §1

[6] = test system: Morningglory; test: Pre-emergence herbicide test; conditions: Ipomoea, 1.12 kg/ha, read-out: % plant inhibition (Mogl)
Summary of the method: as §1

[7] = test system: Seedling johnsongrass; test: Pre-emergence herbicide test; conditions: Sorghum halepense, 1.12 kg/ha, read-out: % plant inhibition (Sejg)
Summary of the method: as §1

[8] = test system: Velvetleaf; test: Pre-emergence herbicide test; conditions: Abutilon theophrasti, 1.12 kg/ha, read-out: % plant inhibition (Vele)
Summary of the method: as §1

[9] = test system: Wild buckwheat; test: Pre-emergence herbicide test; conditions: Fallopia convolvulus, 1.12 kg/ha, read-out: % plant inhibition (Wibw)
Summary of the method: as §1

[10] = test system: Yellow nutsedge; test: Pre-emergence herbicide test; conditions: Cyperus, 1.12 kg/ha, read-out: % plant inhibition (Yens)
Summary of the method: as §1

[11] = test system: Annual bluegrass; test: Post-emergence herbicide test; conditions: 1.12 kg/ha, read-out: % plant inhibition (Anbg)
Summary of the method: (§2)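 Soil pans, sub-irrigated; plants sprayed at 2–3 wk; 170.3 kPa atomizer; 1870 L/Ha; ~0.4% v/v emulsifier; % inhibition vs control ~11 d post-spray, sometimes ~25 d.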

[12] = test system: Barnyardgrass; test: Post-emergence herbicide test; conditions: Echinochloa crus-galli, 1.12 kg/ha, read-out: % plant inhibition (Bygr)
Summary of the method: as §2

[13] = test system: Cocklebur; test: Post-emergence herbicide test; conditions: Xanthium strumarium, 1.12 kg/ha, read-out: % plant inhibition (Cobu)
Summary of the method: as §2

[14] = test system: Downy Brome; test: Post-emergence herbicide test; conditions: Bromus tectorum, 1.12 kg/ha, read-out: % plant inhibition (Dobr)
Summary of the method: as §2

[15] = test system: Indian Mustard; test: Post-emergence herbicide test; conditions: Brassica juncea, 1.12 kg/ha, read-out: % plant inhibition (Inmu)
Summary of the method: as §2

[16] = test system: Morningglory; test: Post-emergence herbicide test; conditions: Ipomoea, 1.12 kg/ha, read-out: % plant inhibition (Mogl)
Summary of the method: as §2

[17] = test system: Seedling johnsongrass; test: Post-emergence herbicide test; conditions: Sorghum halepense, 1.12 kg/ha, read-out: % plant inhibition (Sejg)
Summary of the method: as §2

[18] = test system: Velvetleaf; test: Post-emergence herbicide test; conditions: Abutilon theophrasti, 1.12 kg/ha, read-out: % plant inhibition (Vele)
Summary of the method: as §2

[19] = test system: Wild buckwheat; test: Post-emergence herbicide test; conditions: Fallopia convolvulus, 1.12 kg/ha, read-out: % plant inhibition (Wibw)
Summary of the method: as §2

[20] = test system: Yellow nutsedge; test: Post-emergence herbicide test; conditions: Cyperus, 1.12 kg/ha, read-out: % plant inhibition (Yens)
Summary of the method: as §2

[21] = test system: resistant broadleaf weeds such as pigweed, cocklebur, velvetleaf and hemp sesbania; test: Control of resistant broadleaf weeds in crops; conditions: in various crops such as corn, soybean and nuts and in forestry

Which results are given for `COC(=O)C(C)OC(=O)c1cc(-c2nn(C)c(C(F)(F)F)c2Cl)c(F)cc1Cl` (stereo not drawn) [Compound 137, 2-Chloro-5-(4-chloro-1-methyl-5-(trifluoromethyl)-1H-pyrazol-3-yl)-4-fluorobenzoic acid, 2-methoxy-1-methyl-2-oxoethyl ester]?
inhibition at 1120 g/ha [1]: 70%; inhibition at 1120 g/ha [2]: 70%; inhibition at 1120 g/ha [3]: 100%; inhibition at 1120 g/ha [4]: 80%; inhibition at 1120 g/ha [5]: 100%; inhibition at 1120 g/ha [6]: 100%; inhibition at 1120 g/ha [7]: 50%; inhibition at 1120 g/ha [8]: 100%; inhibition at 1120 g/ha [9]: 90%; inhibition at 1120 g/ha [10]: 20%; inhibition at 1120 g/ha [11]: 100%; inhibition at 1120 g/ha [12]: 100%; inhibition at 1120 g/ha [13]: 100%; inhibition at 1120 g/ha [14]: 100%; inhibition at 1120 g/ha [15]: 100%; inhibition at 1120 g/ha [16]: 100%; inhibition at 1120 g/ha [17]: 100%; inhibition at 1120 g/ha [18]: 100%; inhibition at 1120 g/ha [19]: 100%; inhibition at 1120 g/ha [20]: 20%; control of resistant broadleaf weeds [21]: outstanding control

`CC(C)OC(=O)c1cc(-c2nn(C)c(C(F)(F)F)c2Cl)c(F)cc1Cl` [Compound 135, 2-chloro-5-[4-chloro-1-methyl-5-(trifluoromethyl)-1H-pyrazol-3-yl]-4-fluorobenzoic acid, 1-methylethyl ester] was tested. Which inhibition at 1120 g/ha [1] did it give?
Its inhibition at 1120 g/ha is 100%.

And the inhibition at 1120 g/ha [2]?
The inhibition at 1120 g/ha was 100%.

What about the inhibition at 1120 g/ha [3] of the same compound?
Its inhibition at 1120 g/ha is 90%.

And the inhibition at 1120 g/ha [4]?
Its inhibition at 1120 g/ha is 100%.

And the inhibition at 1120 g/ha [5]?
The inhibition at 1120 g/ha was 100%.

And the inhibition at 1120 g/ha [6]?
Its inhibition at 1120 g/ha is 90%.

What about the inhibition at 1120 g/ha [7] of the same compound?
The inhibition at 1120 g/ha was 100%.

And the inhibition at 1120 g/ha [8]?
The inhibition at 1120 g/ha was 100%.

What about the inhibition at 1120 g/ha [9] of the same compound?
The inhibition at 1120 g/ha was 100%.

And the inhibition at 1120 g/ha [10]?
The inhibition at 1120 g/ha was 0%.

What about the inhibition at 1120 g/ha [11] of the same compound?
Its inhibition at 1120 g/ha is 100%.

And the inhibition at 1120 g/ha [12]?
The inhibition at 1120 g/ha was 100%.

And the inhibition at 1120 g/ha [13]?
The inhibition at 1120 g/ha was 100%.

What about the inhibition at 1120 g/ha [14] of the same compound?
Its inhibition at 1120 g/ha is 100%.

What about the inhibition at 1120 g/ha [15] of the same compound?
The inhibition at 1120 g/ha was 100%.

What about the inhibition at 1120 g/ha [16] of the same compound?
Its inhibition at 1120 g/ha is 100%.

And the inhibition at 1120 g/ha [17]?
The inhibition at 1120 g/ha was 100%.

And the inhibition at 1120 g/ha [18]?
The inhibition at 1120 g/ha was 100%.

What about the inhibition at 1120 g/ha [19] of the same compound?
The inhibition at 1120 g/ha was 100%.

And the inhibition at 1120 g/ha [20]?
The inhibition at 1120 g/ha was 20%.

And the “control of resistant broadleaf weeds” value [21]?
The value was “outstanding control”.

Which results are given for `CC(C)OC(=O)COc1cc(-c2nn(C)c(C(F)(F)F)c2Cl)c(F)cc1Cl` [Compound 282, (2-Chloro-5-(4-chloro-1-methyl-5-(trifluoromethyl)-1H-pyrazol-3-yl)-4-fluorophenoxy)acetic acid, 1-methylethyl ester]?
inhibition at 1120 g/ha [1]: 20%; inhibition at 1120 g/ha [2]: 20%; inhibition at 1120 g/ha [3]: 30%; inhibition at 1120 g/ha [4]: 20%; inhibition at 1120 g/ha [5]: 30%; inhibition at 1120 g/ha [6]: 90%; inhibition at 1120 g/ha [7]: 30%; inhibition at 1120 g/ha [8]: 100%; inhibition at 1120 g/ha [9]: 90%; inhibition at 1120 g/ha [10]: 40%; inhibition at 1120 g/ha [11]: 0%; inhibition at 1120 g/ha [12]: 30%; inhibition at 1120 g/ha [13]: 100%; inhibition at 1120 g/ha [14]: 0%; inhibition at 1120 g/ha [15]: 10%; inhibition at 1120 g/ha [16]: 70%; inhibition at 1120 g/ha [17]: 20%; inhibition at 1120 g/ha [18]: 100%; inhibition at 1120 g/ha [19]: 100%; inhibition at 1120 g/ha [20]: 10%; control of resistant broadleaf weeds [21]: outstanding control

What does the source list for `C#CCN1C(=O)COc2cc(F)c(-c3nn(C)c(C(F)(F)F)c3Cl)cc21` [Compound 446, 6-(4-Chloro-1-methyl-5-(trifluoromethyl)-1H-pyrazol-3-yl)-7-fluoro-4-(2-propynyl)-2H-1,4-benzoxazin-3-(4H)-one]?
inhibition at 1120 g/ha [1]: 100%; inhibition at 1120 g/ha [2]: 80%; inhibition at 1120 g/ha [3]: 100%; inhibition at 1120 g/ha [4]: 90%; inhibition at 1120 g/ha [5]: 100%; inhibition at 1120 g/ha [6]: 100%; inhibition at 1120 g/ha [7]: 80%; inhibition at 1120 g/ha [8]: 90%; inhibition at 1120 g/ha [9]: 100%; inhibition at 1120 g/ha [10]: 60%; inhibition at 1120 g/ha [11]: 100%; inhibition at 1120 g/ha [12]: 100%; inhibition at 1120 g/ha [13]: 100%; inhibition at 1120 g/ha [14]: 100%; inhibition at 1120 g/ha [15]: 100%; inhibition at 1120 g/ha [16]: 100%; inhibition at 1120 g/ha [17]: 90%; inhibition at 1120 g/ha [18]: 100%; inhibition at 1120 g/ha [19]: 100%; inhibition at 1120 g/ha [20]: 40%; control of resistant broadleaf weeds [21]: outstanding control
